Target: S. pneumoniae Topoisomerase IV ATPase (ParE) (Streptococcus pneumoniae serotype 4, UniProt Q59961)
Experiment: S. pneumoniae Topoisomerase IV ATPase inhibition
Format: biochemical
Conditions: values marked * are an average of two or more data points, read-out: % Inh (13 μM) of S. pneumoniae Topoisomerase IV ATPase
Procedure, shortened: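 Phosphate release by ParE ATPase from S. pneumoniae read colorimetrically (malachite green, 650 nm), enzyme 1.25 nM, ATP 160 μM, salmon sperm DNA present, buffer 20 mM Tris pH 8.0 with 8 mM MgCl2. IC50 over 10 compound concentrations, EDTA (20 μM) and DMSO controls defining inhibition range.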

Sequence of S. pneumoniae Topoisomerase IV ATPase (ParE) (Q59961 whole entry): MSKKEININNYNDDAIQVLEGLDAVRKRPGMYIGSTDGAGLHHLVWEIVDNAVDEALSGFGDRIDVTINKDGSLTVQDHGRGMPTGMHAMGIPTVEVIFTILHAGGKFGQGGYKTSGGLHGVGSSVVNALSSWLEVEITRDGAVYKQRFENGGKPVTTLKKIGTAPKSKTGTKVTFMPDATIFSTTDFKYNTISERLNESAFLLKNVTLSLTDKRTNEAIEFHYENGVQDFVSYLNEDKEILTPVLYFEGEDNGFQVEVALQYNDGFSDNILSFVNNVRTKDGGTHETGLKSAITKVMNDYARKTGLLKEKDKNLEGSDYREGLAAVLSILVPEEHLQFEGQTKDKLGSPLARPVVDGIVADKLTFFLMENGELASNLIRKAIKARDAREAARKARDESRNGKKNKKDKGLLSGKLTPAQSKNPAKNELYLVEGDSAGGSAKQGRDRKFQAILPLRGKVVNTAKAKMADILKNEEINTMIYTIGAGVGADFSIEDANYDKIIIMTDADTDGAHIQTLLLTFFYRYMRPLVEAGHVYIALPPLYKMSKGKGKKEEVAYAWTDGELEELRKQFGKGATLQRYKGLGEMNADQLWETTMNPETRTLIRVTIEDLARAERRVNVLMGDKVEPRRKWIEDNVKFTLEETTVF

CCOC(=O)c1cncc(-c2cnc(Nc3ccc(F)c(Cl)c3)nc2NCCNC(=O)OC(C)(C)C)c1 [Example 98, 5-[4-(2-tert-Butoxycarbonylamino-ethylamino)-2-(3-chloro-4-fluoro-phenylamino)-pyrimidin-5-yl]-nicotinic acid ethyl ester]
inhibition at 13 µM: 59.4%

CCOC(=O)c1cncc(-c2cnc(Nc3ccc(F)c(Cl)c3)nc2NCCC(N)=O)c1 [Example 99, 5-[4-(2-Carbamoyl-ethylamino)-2-(3-chloro-4-fluoro-phenylamino)-pyrimidin-5-yl]-nicotinic acid ethyl ester]
inhibition at 13 µM: 82%

CCOC(=O)c1cncc(-c2cnc(Nc3ccc(F)c(Cl)c3)nc2NCCN2CCOCC2)c1 [Example 100, 5-[2-(3-Chloro-4-fluoro-phenylamino)-4-(2-morpholin-4-yl-ethylamino)-pyrimidin-5-yl]-nicotinic acid ethyl ester]
inhibition at 13 µM: 74.2%

CCOC(=O)c1cncc(-c2cnc(Nc3ccc(F)c(Cl)c3)nc2NCCc2ccccn2)c1 [Example 101, 5-[2-(3-Chloro-4-fluoro-phenylamino)-4-(2-pyridin-2-yl-ethylamino)-pyrimidin-5-yl]-nicotinic acid ethyl ester]
inhibition at 13 µM: 8.69%

CCOC(=O)c1cncc(-c2cnc(Nc3ccc(F)c(Cl)c3)nc2NCCc2cccnc2)c1 [Example 102, 5-[2-(3-Chloro-4-fluoro-phenylamino)-4-(2-pyridin-3-yl-ethylamino)-pyrimidin-5-yl]-nicotinic acid ethyl ester]
inhibition at 13 µM: 73.5%

CCOC(=O)c1cncc(-c2cnc(Nc3ccc(F)c(Cl)c3)nc2NCCc2ccncc2)c1 [Example 103, 5-[2-(3-Chloro-4-fluoro-phenylamino)-4-(2-pyridin-4-yl-ethylamino)-pyrimidin-5-yl]-nicotinic acid ethyl ester]
inhibition at 13 µM: 79.5%

CCOC(=O)c1cncc(-c2cnc(Nc3ccc(F)c(Cl)c3)nc2NCCN2CCS(=O)(=O)CC2)c1 [Example 104, 5-{2-(3-Chloro-4-fluoro-phenylamino)-4-[2-(1,1-dioxo-1λ^6-thiomorpholin-4-yl)-ethylamino]-pyrimidin-5-yl}-nicotinic acid ethyl ester]
inhibition at 13 µM: 76.2%

CCOC(=O)c1cncc(-c2cnc(Nc3ccc(F)c(Cl)c3)nc2NCCCN2CCS(=O)(=O)CC2)c1 [Example 105, 5-{2-(3-Chloro-4-fluoro-phenylamino)-4-[3-(1,1-dioxo-1λ^6-thiomorpholin-4-yl)-propylamino]-pyrimidin-5-yl}-nicotinic acid ethyl ester]
inhibition at 13 µM: 79.2%

CCOC(=O)c1cncc(-c2cnc(Nc3ccc(F)c(Cl)c3)nc2NCCCN2CCOCC2)c1 [Example 106, 5-[2-(3-Chloro-4-fluoro-phenylamino)-4-(3-morpholin-4-yl-propylamino)-pyrimidin-5-yl]-nicotinic acid ethyl ester]
inhibition at 13 µM: 40.8%

CCOC(=O)c1cncc(-c2cnc(Nc3ccc(F)c(Cl)c3)nc2NCC2CCCO2)c1 (centres unmarked) [Example 108, ethyl 5-[2-[(3-chloro-4-fluorophenyl)amino]-4-(oxolan-2-ylmethylamino)pyrimidin-5-yl]pyridine-3-carboxylate]
inhibition at 13 µM: -18.1%

CCOC(=O)c1cncc(-c2cnc(Nc3ccc(F)c(Cl)c3)nc2NCCOC(C)C)c1 [Example 109, ethyl 5-[2-[(3-chloro-4-fluorophenyl)amino]-4-(2-propan-2-yloxyethylamino)pyrimidin-5-yl]pyridine-3-carboxylate]
inhibition at 13 µM: 52.4%

CCOC(=O)c1cncc(-c2cnc(Nc3ccc(F)c(Cl)c3)nc2NCc2ccco2)c1 [Example 110, ethyl 5-[2-[(3-chloro-4-fluorophenyl)amino]-4-(furan-2-ylmethylamino)pyrimidin-5-yl]pyridine-3-carboxylate]
inhibition at 13 µM: 27.6%

CCOC(=O)CNc1nc(Nc2ccc(F)c(Cl)c2)ncc1-c1cncc(C(=O)OCC)c1 [Example 111, ethyl 5-[2-[(3-chloro-4-fluorophenyl)amino]-4-[(2-ethoxy-2-oxoethyl)amino]pyrimidin-5-yl]pyridine-3-carboxylate]
inhibition at 13 µM: -13.9%

CCOC(=O)c1cncc(-c2cnc(Nc3ccc(F)c(Cl)c3)nc2NCCOc2ccccc2)c1 [Example 112]
inhibition at 13 µM: 0.15%

CCOC(=O)c1cncc(-c2cnc(Nc3ccc(F)c(Cl)c3)nc2N[C@H](C)C(=O)OC)c1 [Example 113, ethyl 5-[2-[(3-chloro-4-fluorophenyl)amino]-4-[[(2R)-1-methoxy-1-oxopropan-2-yl]amino]pyrimidin-5-yl]pyridine-3-carboxylate]
inhibition at 13 µM: 34.3%

CCOC(=O)c1cncc(-c2cnc(Nc3ccc(F)c(Cl)c3)nc2NCc2cnc(C)cn2)c1 [Example 115, ethyl 5-[2-[(3-chloro-4-fluorophenyl)amino]-4-[(5-methylpyrazin-2-yl)methylamino]pyrimidin-5-yl]pyridine-3-carboxylate]
inhibition at 13 µM: 28.8%

CCOC(=O)c1cncc(-c2cnc(Nc3ccc(F)c(Cl)c3)nc2NC(C)C)c1 [Example 116, ethyl 5-[2-[(3-chloro-4-fluorophenyl)amino]-4-(propan-2-ylamino)pyrimidin-5-yl]pyridine-3-carboxylate]
inhibition at 13 µM: 82%

CCOC(=O)c1cncc(-c2cnc(Nc3ccc(F)c(Cl)c3)nc2N2CCC(O)CC2)c1 [Example 117, ethyl 5-[2-[(3-chloro-4-fluorophenyl)amino]-4-(4-hydroxypiperidin-1-yl)pyrimidin-5-yl]pyridine-3-carboxylate]
inhibition at 13 µM: 73.4%

CCOC(=O)c1cncc(-c2cnc(Nc3ccc(F)c(Cl)c3)nc2N2CCCC(CO)C2)c1 (centres unmarked) [Example 118, ethyl 5-[2-[(3-chloro-4-fluorophenyl)amino]-4-[3-(hydroxymethyl)piper-idin-1-yl]pyrimidin-5-yl]pyridine-3-carboxylate]
inhibition at 13 µM: 80.6%

CCOC(=O)c1cncc(-c2cnc(Nc3ccc(F)c(Cl)c3)nc2N2CCC(N3CCOCC3)CC2)c1 [Example 119, ethyl 5-[2-[(3-chloro-4-fluorophenyl)amino]-4-(4-morpholin-4-ylpiperidin-1-yl)pyrimidin-5-yl]pyridine-3-carboxylate]
inhibition at 13 µM: 32%

CCOC(=O)c1cncc(-c2cnc(Nc3ccc(F)c(Cl)c3)nc2N2CCC(C(=O)NC)CC2)c1 [Example 120, ethyl 5-[2-[(3-chloro-4-fluorophenyl)amino]-4-[4-(methylcarbamoyl)piper-idin-1-yl]pyrimidin-5-yl]pyridine-3-carboxylate]
inhibition at 13 µM: 73.9%

CCOC(=O)c1cncc(-c2cnc(Nc3ccc(F)c(Cl)c3)nc2N2CCC(F)CC2)c1 [Example 121, ethyl 5-[2-[(3-chloro-4-fluorophenyl)amino]-4-(4-fluoropiperidin-1-yl)pyrimidin-5-yl]pyridine-3-carboxylate]
inhibition at 13 µM: 49.6%

CCOC(=O)c1cncc(-c2cnc(Nc3ccc(F)c(Cl)c3)nc2N2CCC(OC)CC2)c1 [Example 122, ethyl 5-[2-[3-chloro-4-fluorophenyl)amino]-4-(4-methoxypiperidin-1-yl)pyrimidin-5-yl]pyridine-3-carboxylate]
inhibition at 13 µM: 57.9%

CCOC(=O)c1cncc(-c2cnc(Nc3ccc(F)c(Cl)c3)nc2N2CCC(O)C2)c1 (centres unmarked) [Example 123, ethyl 5-[2-[(3-chloro-4-fluorophenyl)amino]-4-(3-hydroxypyrrolidin-1-yl)pyrimidin-5-yl]pyridine-3-carboxylate]
inhibition at 13 µM: 66.4%

CCOC(=O)c1cncc(-c2cnc(Nc3ccc(F)c(Cl)c3)nc2N2CCCC2C)c1 (centres unmarked) [Example 124, ethyl 5-[2-[(3-chloro-4-fluorophenyl)amino]-4-(2-methylpyrrolidin-1-yl)pyrimidin-5-yl]pyridine-3-carboxylate]
inhibition at 13 µM: 31.3%

CCOC(=O)c1cncc(-c2cnc(Nc3ccc(F)c(Cl)c3)nc2N2C(C)CCC2C)c1 (centres unmarked) [Example 125, ethyl 5-[2-[(3-chloro-4-fluorophenyl)amino]-4-(2,5-dimethylpyrrolidin-1-yl)pyrimidin-5-yl]pyridine-3-carboxylate]
inhibition at 13 µM: 17.5%

CCOC(=O)c1cncc(-c2cnc(Nc3ccc(F)c(Cl)c3)nc2N2CCC2)c1 [Example 126, ethyl 5-[4-(azetidin-1-yl)-2-[(3-chloro-4-fluorophenyl)amino]pyrimidin-5-yl]pyridine-3-carboxylate]
inhibition at 13 µM: 35.7%

CCOC(=O)c1cncc(-c2cnc(Nc3ccc(F)c(Cl)c3)nc2N2CCCCCC2)c1 [Example 127, ethyl 5-[4-(azepan-1-yl)-2-[(3-chloro-4-fluorophenyl)amino]pyrimidin-5-yl]pyridine-3-carboxylate]
inhibition at 13 µM: 26.5%

CCOC(=O)c1cncc(-c2cnc(Nc3ccc(F)c(Cl)c3)nc2N[C@H]2CC[C@H](O)CC2)c1 [Example 128, ethyl 5-[2-[(3-chloro-4-fluorophenyl)amino]-4-[(trans-4-hydroxycyclohexyl)amino]pyrimidin-5-yl]pyridine-3-carboxylate]
inhibition at 13 µM: -16.2%

CCOC(=O)c1cncc(-c2cnc(Nc3ccc(F)c(Cl)c3)nc2N2CCC(NC(C)=O)CC2)c1 [Example 129, ethyl 5-[4-(4-acetamidopiperidin-1-yl)-2-[(3-chloro-4-fluorophenyl)amino]pyrimidin-5-yl]pyridine-3-carboxylate]
inhibition at 13 µM: 74.9%

CCOC(=O)c1cncc(-c2cnc(Nc3ccc(F)c(Cl)c3)nc2N2CC(C)OC(C)C2)c1 (centres unmarked) [Example 139, ethyl 5-(2-(3-chloro-4-fluorophenylamino)-4-(2,6-dimethylmorpholino)pyrimidin-5-yl)nicotinate]
inhibition at 13 µM: 80.1%

CCOC(=O)c1cncc(-c2cnc(Nc3ccc(F)c(Cl)c3)nc2NCCCc2nc3ccccc3[nH]2)c1 [Example 140, ethyl 5-(4-(3-(1H-benzo[d]imidazol-2-yl)propylamino)-2-(3-chloro-4-fluorophenylamino)pyrimidin-5-yl)nicotinate]
inhibition at 13 µM: 83.5%
